Measured values published in PMC5283653, “Structural aspects of nucleotide ligand binding by a bacterial 2H phosphoesterase” (PLoS ONE, 2017).
Where two headings read alike, the source gives them in different places. Values belong to the compound of their own block, whether it stands above or below them.

Legend:
LigT [1] = target: T1, LigT (Escherichia coli, UniProt Z9E1N8ZL79); test: turnover to […]′-AMP seen in crystal; type: biochemical; conditions: 0.1 M Tris-HCl pH 7.4-7.5, 0.2 M MgCl2, PEG 8000; 5 mM ligand
T1 construct: N-terminal His6 tag with TEV site, tag cut with TEV protease; expressed in E. coli BL21(DE3); 20 kDa; monomer in solution

LigT [2] = target: T1, LigT; test: isothermal titration calorimetry; co-crystal structure; type: binding; conditions: 10 mM HEPES pH 7.5, 0.2 M NaCl, 0.1 mM TCEP, 25 °C, active site, read-out: dissociation constant

Structure (SMILES): Nc1ncnc2c1ncn2[C@@H]1O[C@H](CO)[C@H]2OP(=O)(O)O[C@H]21 [2′,3′-cAMP]
turnover to 2′-AMP seen in crystal (LigT [1]): the reaction product is bound in the crystals grown in the presence of the substrate

Kd (LigT [2]; crystal grown with 2′,3′-cAMP): 140 µM
Structure (SMILES): Nc1ncnc2c1ncn2[C@@H]1O[C@H](CO)[C@@H](O)[C@H]1OP(=O)(O)O [2′-AMP]

Kd (LigT [2]): 180 µM
Structure (SMILES): Nc1ncnc2c1ncn2[C@@H]1O[C@H](CO)[C@@H](OP(=O)(O)O)[C@H]1O [3′-AMP]

Kd (LigT [2]; second crystal form 5LDP): 70 µM
Structure (SMILES): Nc1ncnc2c1ncn2[C@@H]1O[C@H](COP(=O)(O)OP(=O)(O)OP(=O)(O)O)[C@@H](O)[C@H]1O [ATP]

Kd (LigT [2]; product analogue): 40 µM
Structure (SMILES): NC(=O)c1ccc[n+]([C@@H]2O[C@H](COP(=O)(O)OP(=O)(O)OC[C@H]3O[C@@H](n4cnc5c(N)ncnc54)[C@H](OP(=O)(O)O)[C@@H]3O)[C@@H](O)[C@H]2O)c1 [NADP^+]
